According to the NIST ThermoML archive (doi:10.1007/s10765-009-0581-7):
± gives the expanded uncertainty stated by the source.

What was measured:
[1] = xn = mol fraction of the nth substance listed; details: x2 = 0; for surface tension liquid-gas: Ring tensiometer; for mass density: 101 kPa, Liquid
[2] = for surface tension liquid-gas: Ring tensiometer; for mass density: 101 kPa, Liquid

Row | SMILES | surface tension liquid-gas ([2]; 278.15 K) [mN/m] | mass density ([2]; 278.15 K) [kg/m3] | surface tension liquid-gas ([2]; 283.15 K) [mN/m] | mass density ([2]; 283.15 K) [kg/m3] | surface tension liquid-gas ([2]; 288.15 K) [mN/m] | mass density ([2]; 288.15 K) [kg/m3] | surface tension liquid-gas ([2]; 293.15 K) [mN/m] | mass density ([2]; 293.15 K) [kg/m3] | surface tension liquid-gas ([2]; 298.15 K) [mN/m] | mass density ([2]; 298.15 K) [kg/m3] | surface tension liquid-gas ([2]; 303.15 K) [mN/m] | mass density ([2]; 303.15 K) [kg/m3] | surface tension liquid-gas ([2]; 308.15 K) [mN/m] | mass density ([2]; 308.15 K) [kg/m3] | surface tension liquid-gas ([2]; 313.15 K) [mN/m] | mass density ([2]; 313.15 K) [kg/m3] | also measured
1 | CCCO [propan-1-ol] + CC#N | – | – | – | – | – | – | – | – | – | – | – | – | – | – | – | – | surface tension liquid-gas ([1]; 278.15 K): 24.9 ± 0.4 mN/m; mass density ([1]; 278.15 K): 816.3 ± 1.8 kg/m3; surface tension liquid-gas ([1]; 283.15 K): 24.5 ± 0.4 mN/m; mass density ([1]; 283.15 K): 812.4 ± 1.8 kg/m3; surface tension liquid-gas ([1]; 288.15 K): 24.1 ± 0.4 mN/m; mass density ([1]; 288.15 K): 808.6 ± 1.8 kg/m3; surface tension liquid-gas ([1]; 293.15 K): 23.7 ± 0.4 mN/m; mass density ([1]; 293.15 K): 803.61 ± 1.9 kg/m3; surface tension liquid-gas ([1]; 298.15 K): 23.3 ± 0.4 mN/m; mass density ([1]; 298.15 K): 799.58 ± 1.9 kg/m3; surface tension liquid-gas ([1]; 303.15 K): 22.9 ± 0.4 mN/m; mass density ([1]; 303.15 K): 795.48 ± 1.9 kg/m3; surface tension liquid-gas ([1]; 308.15 K): 22.5 ± 0.4 mN/m; mass density ([1]; 308.15 K): 792.8 ± 1.9 kg/m3; surface tension liquid-gas ([1]; 313.15 K): 22.2 ± 0.4 mN/m; mass density ([1]; 313.15 K): 787.02 ± 1.9 kg/m3
2 | CCCO [propan-1-ol] | 24.9 ± 0.4 | 816.3 ± 1.8 | 24.5 ± 0.4 | 812.4 ± 1.8 | 24.1 ± 0.4 | 808.6 ± 1.8 | 23.7 ± 0.4 | 803.61 ± 1.9 | 23.3 ± 0.4 | 799.58 ± 1.9 | 22.9 ± 0.4 | 795.48 ± 1.9 | 22.5 ± 0.4 | 792.8 ± 1.9 | 22.2 ± 0.4 | 787.02 ± 1.9 | –
3 | CC#N [acetonitrile] | 30.5 ± 0.5 | 793.3 ± 1.9 | 30.1 ± 0.5 | 788.8 ± 1.9 | 29.7 ± 0.5 | 784.3 ± 2 | 29.3 ± 0.5 | 778.3 ± 2 | 28.9 ± 0.5 | 776.75 ± 2 | 28.5 ± 0.4 | 771.5 ± 2 | 28.1 ± 0.4 | 766.3 ± 2.1 | 27.7 ± 0.4 | 761 ± 2.1 | –
